Source: ChEMBL document CHEMBL2169792, “Synthesis of new 4-thiazolidinone-, pyrazoline-, and isatin-based conjugates with promising antitumor activity” (J Med Chem, 2012)

Experiments:
Assay type in all cases: functional
[1] = Cytotoxicity against human CNS cancer cells after 48 hrs by SRB assay; details: Cancer cell lines
[2] = Cytotoxicity against human non-small cell lung cancer cells after 48 hrs by SRB assay; details: Cancer cell lines
[3] = Cytotoxicity against human renal cancer cells after 48 hrs by SRB assay; details: Cancer cell lines
[4] = Cytotoxicity against human melanoma cells after 48 hrs by SRB assay; details: Melanoma cell
[5] = Cytotoxicity against human leukemia cells after 48 hrs by SRB assay; details: Leukemia cell
[6] = Cytotoxicity against human breast cancer cells after 48 hrs by SRB assay; details: Cancer cell lines
HCT-116 = test: Cytotoxicity against human HCT116 cells assessed as cell growth at 10 uM after 48 hrs by SRB assay; details: HCT-116, 48 h, read-out: Activity
[7] = Cytotoxicity against human colon cancer cells after 48 hrs by SRB assay; details: Cancer cell lines
[8] = Cytotoxicity against human prostate cancer cells after 48 hrs by SRB assay; details: Cancer cell lines
[9] = Cytotoxicity against human ovarian cancer cells after 48 hrs by SRB assay; details: Cancer cell lines
[10] = read-out: LC50 (the source's name)

O=C1N=C(N2N=C(c3ccccc3)CC2c2ccccc2O)S/C1=C1/C(=O)Nc2ccccc21 (stereo not drawn)
GI50 [1]: 2.13 µM
LC50 (concentration giving 50% net cell kill) [1]: 68.1 µM
TGI [1]: 5.37 µM
GI50 [2]: 2.03 µM
TGI [2]: 4.73 µM
CC50 [2, 10]: 57.2 µM
GI50 [3]: 2.07 µM
LC50 [3]: 55.8 µM
TGI [3]: 17.8 µM
GI50 [4]: 2.04 µM
TGI [4]: 4.4 µM
CC50 [4, 10]: 60.8 µM
GI50 [5]: 3.19 µM
TGI [5]: 48.8 µM
CC50 [5, 10]: 100 µM
GI50 [6]: 2.09 µM
LC50 (concentration causing 50% net cell kill) [6]: 64.6 µM
TGI [6]: 4.77 µM
growth at 10 µM (HCT-116): -37.4%
GI50 [7]: 1.99 µM
LC50 (concentration lethal to 50% of cells) [7]: 33.4 µM
TGI [7]: 4.22 µM
GI50 [8]: 2.05 µM
LC50 [8]: 54.7 µM
TGI [8]: 4.35 µM
GI50 [9]: 2.41 µM
LC50 (concentration causing 50% net cell kill) [9]: 81.5 µM
TGI [9]: 36.6 µM
